One test concerns the target PIK3CD (Human) (UniProt O00329). Kind of test: Assessment of PIK3CD Kinase Activity.
Another test has as its target PIK3CB (Human) (UniProt P42338). The test is described as follows: Assessment of PIK3CB Kinase Activity.
The next test has as its target PIK3CG (human) (UniProt P48736). Kind of test: Assessment of PIK3CG Kinase Activity.
Another test concerns the target PIK3CA (human) (UniProt P42336). The test is described as follows: Assessment of PIK3CA Kinase Activity.

Molecules are shown by their SMILES.

Chain of PIK3CB (Human) (P42338 whole entry, looked up): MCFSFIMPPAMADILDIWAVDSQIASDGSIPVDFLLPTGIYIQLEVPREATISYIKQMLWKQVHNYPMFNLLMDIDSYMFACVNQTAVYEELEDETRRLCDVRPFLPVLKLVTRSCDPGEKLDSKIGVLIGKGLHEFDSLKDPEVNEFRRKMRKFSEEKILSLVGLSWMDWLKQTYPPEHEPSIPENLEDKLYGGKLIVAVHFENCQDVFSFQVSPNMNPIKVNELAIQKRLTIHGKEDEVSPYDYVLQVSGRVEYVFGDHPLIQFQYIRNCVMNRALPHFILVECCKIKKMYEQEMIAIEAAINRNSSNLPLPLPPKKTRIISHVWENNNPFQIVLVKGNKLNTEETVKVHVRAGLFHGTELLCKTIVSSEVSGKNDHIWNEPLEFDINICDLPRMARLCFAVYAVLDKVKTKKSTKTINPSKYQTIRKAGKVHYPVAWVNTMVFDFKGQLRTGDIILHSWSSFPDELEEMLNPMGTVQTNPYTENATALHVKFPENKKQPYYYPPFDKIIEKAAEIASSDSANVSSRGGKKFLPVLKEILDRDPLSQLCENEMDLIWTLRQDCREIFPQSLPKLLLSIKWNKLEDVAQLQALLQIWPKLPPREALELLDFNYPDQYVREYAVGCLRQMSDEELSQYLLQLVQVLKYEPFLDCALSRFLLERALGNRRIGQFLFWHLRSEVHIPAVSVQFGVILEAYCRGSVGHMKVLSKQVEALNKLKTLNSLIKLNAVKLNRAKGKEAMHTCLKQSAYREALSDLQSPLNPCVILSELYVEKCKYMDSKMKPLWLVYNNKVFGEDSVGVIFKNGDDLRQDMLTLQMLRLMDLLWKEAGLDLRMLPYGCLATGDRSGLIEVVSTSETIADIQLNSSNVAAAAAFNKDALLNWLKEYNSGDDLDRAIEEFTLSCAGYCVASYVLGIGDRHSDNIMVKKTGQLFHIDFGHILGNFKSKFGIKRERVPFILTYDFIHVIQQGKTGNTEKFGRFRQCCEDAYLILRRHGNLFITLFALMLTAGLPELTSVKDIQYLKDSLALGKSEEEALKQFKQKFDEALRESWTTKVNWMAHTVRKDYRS
Chain of PIK3CA (human) (P42336 whole entry, looked up): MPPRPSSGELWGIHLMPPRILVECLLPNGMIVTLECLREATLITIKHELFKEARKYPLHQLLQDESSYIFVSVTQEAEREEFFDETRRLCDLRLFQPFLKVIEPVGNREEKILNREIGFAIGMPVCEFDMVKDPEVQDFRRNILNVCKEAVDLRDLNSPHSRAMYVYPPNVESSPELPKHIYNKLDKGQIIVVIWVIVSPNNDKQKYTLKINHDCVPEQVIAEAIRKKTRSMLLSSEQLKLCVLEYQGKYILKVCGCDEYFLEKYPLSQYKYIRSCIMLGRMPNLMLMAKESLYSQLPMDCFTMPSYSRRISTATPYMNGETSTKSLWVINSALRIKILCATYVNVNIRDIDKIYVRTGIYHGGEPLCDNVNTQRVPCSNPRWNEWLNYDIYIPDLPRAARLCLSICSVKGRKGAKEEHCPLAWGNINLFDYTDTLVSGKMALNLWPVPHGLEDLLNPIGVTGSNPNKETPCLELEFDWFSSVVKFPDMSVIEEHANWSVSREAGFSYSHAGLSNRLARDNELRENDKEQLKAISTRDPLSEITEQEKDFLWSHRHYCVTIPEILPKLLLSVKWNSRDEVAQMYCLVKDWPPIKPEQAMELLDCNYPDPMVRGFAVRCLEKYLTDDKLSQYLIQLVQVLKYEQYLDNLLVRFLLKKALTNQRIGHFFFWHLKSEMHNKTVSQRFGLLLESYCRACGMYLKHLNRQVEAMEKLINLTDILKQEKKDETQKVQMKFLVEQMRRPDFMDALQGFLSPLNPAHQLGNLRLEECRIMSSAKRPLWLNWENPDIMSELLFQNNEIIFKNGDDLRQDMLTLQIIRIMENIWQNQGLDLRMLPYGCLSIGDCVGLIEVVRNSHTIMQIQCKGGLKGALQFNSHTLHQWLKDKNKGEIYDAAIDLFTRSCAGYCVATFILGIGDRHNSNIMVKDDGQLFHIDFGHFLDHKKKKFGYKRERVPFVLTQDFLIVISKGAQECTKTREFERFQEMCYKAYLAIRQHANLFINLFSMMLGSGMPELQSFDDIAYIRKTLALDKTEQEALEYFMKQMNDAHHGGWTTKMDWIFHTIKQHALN
Chain of PIK3CG (human) (P48736 whole entry, looked up): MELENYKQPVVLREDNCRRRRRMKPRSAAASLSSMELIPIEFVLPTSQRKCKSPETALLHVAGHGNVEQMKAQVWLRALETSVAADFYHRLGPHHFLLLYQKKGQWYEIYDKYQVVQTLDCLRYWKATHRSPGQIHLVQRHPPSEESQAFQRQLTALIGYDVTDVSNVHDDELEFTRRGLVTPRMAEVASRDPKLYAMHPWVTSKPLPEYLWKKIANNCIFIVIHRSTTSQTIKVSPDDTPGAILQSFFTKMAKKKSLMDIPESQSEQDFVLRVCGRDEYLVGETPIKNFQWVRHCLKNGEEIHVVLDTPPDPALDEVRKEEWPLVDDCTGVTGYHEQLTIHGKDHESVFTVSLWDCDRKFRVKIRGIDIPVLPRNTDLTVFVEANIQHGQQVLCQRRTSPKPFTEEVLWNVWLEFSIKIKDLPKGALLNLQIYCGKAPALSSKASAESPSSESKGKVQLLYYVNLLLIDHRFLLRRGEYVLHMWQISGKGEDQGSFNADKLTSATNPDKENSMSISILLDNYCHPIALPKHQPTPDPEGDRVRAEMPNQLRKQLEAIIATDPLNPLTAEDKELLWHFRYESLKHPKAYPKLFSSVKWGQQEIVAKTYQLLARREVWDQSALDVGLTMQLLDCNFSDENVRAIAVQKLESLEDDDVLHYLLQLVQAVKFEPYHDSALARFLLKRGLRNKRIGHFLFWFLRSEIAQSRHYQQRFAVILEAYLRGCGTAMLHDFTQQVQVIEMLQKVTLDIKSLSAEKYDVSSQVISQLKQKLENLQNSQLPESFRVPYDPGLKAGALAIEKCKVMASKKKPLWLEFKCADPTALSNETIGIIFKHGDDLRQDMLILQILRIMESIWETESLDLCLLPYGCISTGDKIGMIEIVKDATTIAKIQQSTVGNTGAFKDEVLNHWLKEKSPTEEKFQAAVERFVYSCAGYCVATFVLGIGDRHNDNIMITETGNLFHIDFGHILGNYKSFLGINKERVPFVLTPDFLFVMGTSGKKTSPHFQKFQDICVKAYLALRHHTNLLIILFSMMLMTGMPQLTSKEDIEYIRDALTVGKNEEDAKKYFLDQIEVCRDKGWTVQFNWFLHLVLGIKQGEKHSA
Chain of PIK3CD (Human) (O00329 whole entry, looked up): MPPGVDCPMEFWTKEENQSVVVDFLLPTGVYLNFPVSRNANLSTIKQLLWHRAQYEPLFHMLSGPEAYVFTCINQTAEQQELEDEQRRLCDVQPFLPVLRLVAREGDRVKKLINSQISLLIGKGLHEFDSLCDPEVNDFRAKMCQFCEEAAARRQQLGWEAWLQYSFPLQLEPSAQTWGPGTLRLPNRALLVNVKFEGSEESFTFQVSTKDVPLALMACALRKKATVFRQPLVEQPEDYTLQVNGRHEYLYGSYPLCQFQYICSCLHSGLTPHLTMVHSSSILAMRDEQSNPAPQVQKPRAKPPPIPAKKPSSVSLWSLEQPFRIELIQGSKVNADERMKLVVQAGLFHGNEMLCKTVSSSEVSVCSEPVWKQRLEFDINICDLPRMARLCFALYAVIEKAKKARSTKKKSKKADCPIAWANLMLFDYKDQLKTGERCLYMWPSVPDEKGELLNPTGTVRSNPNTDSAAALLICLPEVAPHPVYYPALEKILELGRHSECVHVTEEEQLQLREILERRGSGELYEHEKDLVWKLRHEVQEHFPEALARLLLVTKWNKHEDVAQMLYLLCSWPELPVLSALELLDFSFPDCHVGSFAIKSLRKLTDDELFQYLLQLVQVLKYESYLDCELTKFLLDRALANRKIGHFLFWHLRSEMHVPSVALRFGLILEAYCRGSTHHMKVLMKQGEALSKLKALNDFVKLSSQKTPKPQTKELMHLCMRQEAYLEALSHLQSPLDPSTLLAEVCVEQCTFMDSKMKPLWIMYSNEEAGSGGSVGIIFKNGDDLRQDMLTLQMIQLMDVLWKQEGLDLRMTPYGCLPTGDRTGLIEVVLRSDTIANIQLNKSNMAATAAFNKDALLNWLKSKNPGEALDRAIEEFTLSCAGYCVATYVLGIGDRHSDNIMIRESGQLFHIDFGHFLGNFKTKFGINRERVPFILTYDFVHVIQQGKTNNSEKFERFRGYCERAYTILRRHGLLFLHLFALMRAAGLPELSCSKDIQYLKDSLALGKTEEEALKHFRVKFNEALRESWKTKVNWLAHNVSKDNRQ

Take `Cc1ccc(-c2cccc3cc([C@H](C)Nc4nc(N)ncc4C#N)n(-c4ccccc4)c(=O)c23)cn1`: the IC50 against PIK3CD (Human) is less than 100 nM; on PIK3CB (Human) it was greater than 10000 nM; on PIK3CG (human) it was less than 100 nM.

With `CCOc1nc(-c2cnc(N)nc2N[C@@H](C)c2cc3cccc(Cl)c3c(=O)n2-c2ccccc2)cs1`, the concentration for half-maximal inhibition (IC50) against PIK3CD (Human), on PIK3CB (Human) and at PIK3CG (human) was less than 100 nM in each case.

As for `C[C@H](Nc1nc(N)ncc1C#N)c1cc2cccc(-c3ccc(O)nc3)c2c(=O)n1-c1ccccc1`, the IC50 against PIK3CD (Human) is less than 100 nM; against PIK3CB (Human) it was greater than 10000 nM; against PIK3CG (human), less than 100 nM.

`COc1ccc(-c2cccc3cc([C@H](C)Nc4nc(N)ncc4C#N)n(C4CC4)c(=O)c23)cn1`: the IC50 against PIK3CD (Human) was less than 100 nM; at PIK3CB (Human) it was 100 to 1000 nM; on PIK3CG (human), less than 100 nM.

Regarding `CNc1cc(-c2cccc3cc([C@H](C)Nc4nc(N)ncc4C#N)n(-c4ccccc4)c(=O)c23)ccn1`, the IC50 against PIK3CD (Human) was less than 100 nM; against PIK3CB (Human), greater than 10000 nM; against PIK3CG (human) it was less than 100 nM.

As to `C[C@H](Nc1nc(N)ncc1C#N)c1cc2cccc(-c3cncc(OC(F)F)c3)c2c(=O)n1-c1ccccc1`, the results for the 50% inhibitory concentration (IC50) on PIK3CD (Human), on PIK3CB (Human) and on PIK3CG (human) were less than 100 nM, greater than 10000 nM and less than 100 nM, respectively.

Turning to `Cc1cccc2cc([C@H](C)Nc3nc(N)ncc3C#N)n(-c3cccc(F)c3)c(=O)c12`, the values for the IC50 on PIK3CD (Human), on PIK3CB (Human) and on PIK3CG (human) were less than 100 nM, 100 to 1000 nM and less than 100 nM, respectively.

Consider `Cc1ncc(-c2cccc3cc([C@H](C)Nc4nc(N)ncc4C#N)n(-c4ccccc4)c(=O)c23)cn1`, for which the IC50 on PIK3CD (Human) is less than 100 nM; on PIK3CB (Human) it was greater than 10000 nM; against PIK3CG (human), less than 100 nM.

For `C#Cc1cnc(N)nc1N[C@@H](C)c1cc2cccc(Cl)c2c(=O)n1-c1ccccc1`, the concentration for half-maximal inhibition (IC50) was less than 100 nM on PIK3CD (Human), 100 to 1000 nM against PIK3CB (Human) and less than 100 nM against PIK3CG (human).

For the compound `C#Cc1cccc2cc([C@H](C)Nc3nc(N)ncc3C#N)n(-c3ccccc3)c(=O)c12`, the results for the IC50 against PIK3CD (Human), on PIK3CB (Human) and against PIK3CG (human) were less than 100 nM, 100 to 1000 nM and less than 100 nM, respectively.

Consider `C[C@H](Nc1nc(N)ncc1C#N)c1cc2cccc(Cl)c2c(=O)n1-c1ccon1`, for which the IC50 at PIK3CD (Human) was less than 100 nM; against PIK3CB (Human), 100 to 1000 nM; on PIK3CG (human), less than 100 nM.

On to `C[C@H](Nc1nc(N)ncc1NC(=O)c1ccccc1)c1cc2cccc(Cl)c2c(=O)n1-c1ccccc1`, for which the IC50 against PIK3CA (human) and on PIK3CB (Human) was greater than 10000 nM throughout.

For the compound `C[C@H](Nc1nc(N)ncc1C(=O)N1CC(F)(F)C1)c1cc2cccc(Cl)c2c(=O)n1-c1ccccc1`, the IC50 at PIK3CA (human) and against PIK3CB (Human) was greater than 10000 nM throughout.

As to `C[C@H](Nc1nc(N)ncc1C#N)c1cc2cccc(-c3cccc(S(C)(=O)=O)c3)c2c(=O)n1-c1ccccc1`, the IC50 is less than 100 nM against PIK3CD (Human), greater than 10000 nM at PIK3CB (Human) and less than 100 nM on PIK3CG (human).

In the case of `C[C@H](Nc1nc(N)ncc1C(=O)N1CCC1)c1cc2cccc(Cl)c2c(=O)n1-c1ccccc1`, the values for the IC50 against PIK3CA (human), on PIK3CB (Human) and against PIK3CG (human) were greater than 10000 nM, greater than 10000 nM and less than 100 nM, respectively.

On to `C[C@H](Nc1nc(N)ncc1S(C)(=O)=O)c1cc2cccc(Cl)c2c(=O)n1-c1ccccc1`, for which the figures for the IC50 on PIK3CA (human), on PIK3CB (Human) and on PIK3CG (human) were greater than 10000 nM, greater than 10000 nM and 100 to 1000 nM, respectively.

`C[C@H](Nc1nc(N)ncc1C#N)c1cc2cccc(Cl)c2c(=O)n1-c1cccc(F)c1`: the IC50 against PIK3CD (Human) was less than 100 nM; against PIK3CB (Human), 100 to 1000 nM; against PIK3CG (human) it was less than 100 nM.

Turning to `COc1cc(-c2cccc3cc([C@H](C)Nc4nc(N)ncc4[N+](=O)[O-])n(-c4ccccc4)c(=O)c23)ccn1`, the IC50 was less than 100 nM on PIK3CD (Human), greater than 10000 nM against PIK3CB (Human) and less than 100 nM against PIK3CG (human).

In the case of `COc1cc(-c2cccc3cc([C@H](C)Nc4nc(N)ncc4C(=O)NC4CC4)n(-c4ccccc4)c(=O)c23)ccn1`, the values for the IC50 at PIK3CA (human), on PIK3CD (Human) and on PIK3CB (Human) were greater than 10000 nM, less than 100 nM and greater than 10000 nM, respectively.

For the compound `COc1cccc2cc([C@H](C)Nc3nc(N)ncc3C#N)n(-c3ccccc3)c(=O)c12`, the IC50 against PIK3CA (human) was greater than 10000 nM; at PIK3CB (Human) it was greater than 10000 nM; against PIK3CG (human), 100 to 1000 nM.

On to `Cc1cc(-c2cccc3cc([C@H](C)Nc4nc(N)ncc4C#N)n(-c4ccccc4)c(=O)c23)cn(C)c1=O`, for which the IC50 against PIK3CD (Human) was less than 100 nM; against PIK3CB (Human), greater than 10000 nM; against PIK3CG (human), less than 100 nM.

Consider `CC#Cc1cccc2cc([C@H](C)Nc3nc(N)ncc3C#N)n(-c3ccccc3)c(=O)c12`, for which the half-inhibitory concentration (IC50) on PIK3CD (Human) was less than 100 nM; against PIK3CB (Human), 100 to 1000 nM; against PIK3CG (human), less than 100 nM.

On to `C[C@H](Nc1nc(N)ncc1C#N)c1cc2cccc(Cl)c2c(=O)n1-c1cc(F)ccc1F`, for which the figures for the concentration for half-maximal inhibition (IC50) on PIK3CD (Human), on PIK3CB (Human) and against PIK3CG (human) were less than 100 nM, 100 to 1000 nM and less than 100 nM, respectively.

On to `COc1ccc(-c2cccc3cc([C@H](C)Nc4nc(N)ncc4C#N)n(-c4ccccc4)c(=O)c23)nc1`, for which the IC50 is less than 100 nM at PIK3CD (Human), greater than 10000 nM against PIK3CB (Human) and less than 100 nM against PIK3CG (human).

As to `COc1cc(-c2cccc3cc([C@H](C)Nc4nc(N)ncc4C(=O)N(C)CCO)n(-c4ccccc4)c(=O)c23)ccn1`, the IC50 against PIK3CA (human) and against PIK3CB (Human) was greater than 10000 nM in each case.

One may read the IC50 as the point on the concentration scale where inhibition reaches its midpoint.

Values taken from the Kinase Knowledgebase extract (Sharma et al. 2016).
